# Test results: PubChem BioAssay AID1963435 (Molecular Pharmacology Branch, DTP, NCI, 2024)
# Values joined by “and” are separate entries in the source; they are usually repeats but may differ in a detail not shown here. Identical values can stand only once.
# System: PANC-1 complex spheroid growth, percent test/control
# Assay: Anticancer human tumor PANC-1 cell line growth inhibition [Asc];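 also: spheroids exposed to agents for 7 days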;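 as to viability, T/C: percent viability relative to DMSO vehicle wells taken as 100%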
# Details: for viability, T/C: stronger effect = lower value
# Outline: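 Stromal components (HUVEC and hMSC) are co-assembled with the cancer cells into multicellular spheroids. Drugs are then added singly or paired, at concentrations falling by half-log increments from a clinically achievable maximum, capped at 10 microM without known Cmax.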
smiles,measurement,setting,value
NC(=O)C(=Cn1cnc(-c2cc(C(F)(F)F)cc(C(F)(F)F)c2)n1)c1cncnc1 + CNC(C)C(=O)NC1CN(S(=O)(=O)c2cccc(S(=O)(=O)N3CCC4CCC(C(=O)NC(c5ccccc5)c5ccccc5)N4C(=O)C(NC(=O)C(C)NC)C3)c2)CCC2CCC(C(=O)NC(c3ccccc3)c3ccccc3)N2C1=O,IC50,"curve of first compound, second compound 0.00316 µM",> 300 nM
same,IC50,"curve of first compound, second compound 0.01 µM",> 300 nM
same,IC50,"curve of first compound, second compound 0.0316 µM",> 300 nM
same,IC50,"curve of first compound, second compound 0.1 µM",> 300 nM
same,IC50,"curve of first compound, second compound 0.316 µM",> 300 nM
same,IC50,"curve of first compound, second compound 1 µM",> 300 nM
same,"viability, T/C","second compound 0.00316 µM, first compound 0.000949 µM",103%
same,"viability, T/C","second compound 0.00316 µM, first compound 0.003 µM",80.5%
same,"viability, T/C","second compound 0.00316 µM, first compound 0.00949 µM",90.2%
same,"viability, T/C","second compound 0.00316 µM, first compound 0.03 µM",91.6%
same,"viability, T/C","second compound 0.00316 µM, first compound 0.0949 µM",102%
same,"viability, T/C","second compound 0.00316 µM, first compound 0.3 µM",95.3%
same,"viability, T/C","second compound 0.01 µM, first compound 0.000949 µM",87%
same,"viability, T/C","second compound 0.01 µM, first compound 0.003 µM",89.9%
same,"viability, T/C","second compound 0.01 µM, first compound 0.00949 µM",89.3%
same,"viability, T/C","second compound 0.01 µM, first compound 0.03 µM",87.6%
same,"viability, T/C","second compound 0.01 µM, first compound 0.0949 µM",95.3%
same,"viability, T/C","second compound 0.01 µM, first compound 0.3 µM",85.2%
same,"viability, T/C","second compound 0.0316 µM, first compound 0.000949 µM",82%
same,"viability, T/C","second compound 0.0316 µM, first compound 0.003 µM",91.4%
same,"viability, T/C","second compound 0.0316 µM, first compound 0.00949 µM",83.3%
same,"viability, T/C","second compound 0.0316 µM, first compound 0.03 µM",81%
same,"viability, T/C","second compound 0.0316 µM, first compound 0.0949 µM",90.5%
same,"viability, T/C","second compound 0.0316 µM, first compound 0.3 µM",78.3%
same,"viability, T/C","second compound 0.1 µM, first compound 0.000949 µM",84%
same,"viability, T/C","second compound 0.1 µM, first compound 0.003 µM",83.1%
same,"viability, T/C","second compound 0.1 µM, first compound 0.00949 µM",79.9%
same,"viability, T/C","second compound 0.1 µM, first compound 0.03 µM",91.3%
same,"viability, T/C","second compound 0.1 µM, first compound 0.0949 µM",102%
same,"viability, T/C","second compound 0.1 µM, first compound 0.3 µM",80.5%
same,"viability, T/C","second compound 0.316 µM, first compound 0.000949 µM",89.2%
same,"viability, T/C","second compound 0.316 µM, first compound 0.003 µM",78%
same,"viability, T/C","second compound 0.316 µM, first compound 0.00949 µM",79.2%
same,"viability, T/C","second compound 0.316 µM, first compound 0.03 µM",81.5%
same,"viability, T/C","second compound 0.316 µM, first compound 0.0949 µM",103%
same,"viability, T/C","second compound 0.316 µM, first compound 0.3 µM",71.9%
same,"viability, T/C","second compound 1 µM, first compound 0.000949 µM",78.3%
same,"viability, T/C","second compound 1 µM, first compound 0.003 µM",90.7%
same,"viability, T/C","second compound 1 µM, first compound 0.00949 µM",79.7%
same,"viability, T/C","second compound 1 µM, first compound 0.03 µM",85.3%
same,"viability, T/C","second compound 1 µM, first compound 0.0949 µM",88.8%
same,"viability, T/C","second compound 1 µM, first compound 0.3 µM",66.7%
COc1c(OCCCN2CCOCC2)ccc2c3n(c(=NC(=O)c4cnc(N)nc4)nc12)CCN3 + CCN1C(C(=O)NC23CCC(C(=O)O)(CC2)CC3)C(c2cccc(Cl)c2F)C2(C(=O)Nc3cc(Cl)ccc32)C12CCCCC2,IC50,"curve of first compound, second compound 0.00949 µM",315 nM
same,IC50,"curve of first compound, second compound 0.03 µM",423 nM
same,IC50,"curve of first compound, second compound 0.0949 µM",267 nM
same,IC50,"curve of first compound, second compound 0.3 µM",306 nM
same,IC50,"curve of first compound, second compound 0.949 µM",279 nM
same,IC50,"curve of first compound, second compound 3 µM",284 nM
same,"viability, T/C","second compound 0.00949 µM, first compound 0.00316 µM",87.6%
same,"viability, T/C","second compound 0.00949 µM, first compound 0.01 µM",96.3%
same,"viability, T/C","second compound 0.00949 µM, first compound 0.0316 µM",101%
same,"viability, T/C","second compound 0.00949 µM, first compound 0.1 µM",85.2%
same,"viability, T/C","second compound 0.00949 µM, first compound 0.316 µM",50.2%
same,"viability, T/C","second compound 0.00949 µM, first compound 1 µM",30.3%
same,"viability, T/C","second compound 0.03 µM, first compound 0.00316 µM",91.7%
same,"viability, T/C","second compound 0.03 µM, first compound 0.01 µM",91.1%
same,"viability, T/C","second compound 0.03 µM, first compound 0.0316 µM",97.2%
same,"viability, T/C","second compound 0.03 µM, first compound 0.1 µM",76.7%
same,"viability, T/C","second compound 0.03 µM, first compound 0.316 µM",56%
same,"viability, T/C","second compound 0.03 µM, first compound 1 µM",35.8%
same,"viability, T/C","second compound 0.0949 µM, first compound 0.00316 µM",94.9%
same,"viability, T/C","second compound 0.0949 µM, first compound 0.01 µM",101%
same,"viability, T/C","second compound 0.0949 µM, first compound 0.0316 µM",92.5%
same,"viability, T/C","second compound 0.0949 µM, first compound 0.1 µM",70.5%
same,"viability, T/C","second compound 0.0949 µM, first compound 0.316 µM",47.9%
same,"viability, T/C","second compound 0.0949 µM, first compound 1 µM",31.2%
same,"viability, T/C","second compound 0.3 µM, first compound 0.00316 µM",110%
same,"viability, T/C","second compound 0.3 µM, first compound 0.01 µM",106%
same,"viability, T/C","second compound 0.3 µM, first compound 0.0316 µM",95.2%
same,"viability, T/C","second compound 0.3 µM, first compound 0.1 µM",77.1%
same,"viability, T/C","second compound 0.3 µM, first compound 0.316 µM",47.5%
same,"viability, T/C","second compound 0.3 µM, first compound 1 µM",35.8%
same,"viability, T/C","second compound 0.949 µM, first compound 0.00316 µM",108%
same,"viability, T/C","second compound 0.949 µM, first compound 0.01 µM",96.7%
same,"viability, T/C","second compound 0.949 µM, first compound 0.0316 µM",95.6%
same,"viability, T/C","second compound 0.949 µM, first compound 0.1 µM",75.3%
same,"viability, T/C","second compound 0.949 µM, first compound 0.316 µM",45.9%
same,"viability, T/C","second compound 0.949 µM, first compound 1 µM",34.5%
same,"viability, T/C","second compound 3 µM, first compound 0.00316 µM",118%
same,"viability, T/C","second compound 3 µM, first compound 0.01 µM",109%
same,"viability, T/C","second compound 3 µM, first compound 0.0316 µM",92%
same,"viability, T/C","second compound 3 µM, first compound 0.1 µM",79.3%
same,"viability, T/C","second compound 3 µM, first compound 0.316 µM",42.2%
same,"viability, T/C","second compound 3 µM, first compound 1 µM",32.5%
NC1CCC(NC2CC2c2ccccc2)CC1 (stereo not drawn),"viability, T/C",compound 0.000316 µM,98.4% and 88.6% and 107%
same,"viability, T/C",compound 0.001 µM,100% and 93.4% and 91.5%
same,"viability, T/C",compound 0.00316 µM,100% and 110% and 93.7%
same,"viability, T/C",compound 0.01 µM,98.2% and 85.6% and 90.5%
same,"viability, T/C",compound 0.0316 µM,93.5% and 101% and 93.9%
same,"viability, T/C",compound 0.1 µM,107% and 91.3% and 97.6%
same,IC50,curve of compound,> 100 nM
COc1c(OCCCN2CCOCC2)ccc2c3n(c(=NC(=O)c4cnc(N)nc4)nc12)CCN3,"viability, T/C",compound 0.00316 µM,101% and 93.1% and 100%
same,"viability, T/C",compound 0.01 µM,89.9% and 93.9% and 92.4%
same,"viability, T/C",compound 0.0316 µM,92% and 108% and 94.5%
same,"viability, T/C",compound 0.1 µM,78.6% and 67.6% and 82.1%
same,"viability, T/C",compound 0.316 µM,52.2% and 63.2% and 49.7%
same,"viability, T/C",compound 1 µM,39.4% and 36.3% and 28.6%
same,IC50,curve of compound,511 nM and 302 nM and 385 nM
